Test system: normal hematopoietic stem cells/progenitor cells
Details: mouse, in vivo
Description: 7. Reprogramming factors have less effect on normal hematopoietic stem cells/progenitor cells: bone marrow cells and leukemic cells of OSKM mice were co-transplanted into lethally irradiated mice. After leukemia developed in the mice, Dox was added into the drinking water of the mice in experimental group for 7 days. […] It can be seen from FIG. 5A that the ratios of normal hematopoietic stem cells and progenitor cells in the mouse bone marrows were not affected after Dox treatment. […] It can be seen from FIG. 5B that the apoptosis of normal hematopoietic stem cells and progenitor cells was not affected after Dox treatment. […] It can be seen from FIGS. 5A, 5B, and 5C that the number and apoptosis of normal hematopoietic stem cells/progenitor cells were not affected and the mice in the experimental group were recovered from leukemia.

C[C@H]1c2cccc(O)c2C(=O)C2=C(O)[C@]3(O)C(=O)C(C(N)=O)=C(O)[C@@H](N(C)C)[C@@H]3[C@@H](O)[C@@H]21 [Dox, doxycycline]
apoptosis of normal hematopoietic stem cells and progenitor cells in the bone marrow: not affected
ratios of normal hematopoietic stem cells and progenitor cells in the bone marrow: not affected

Source: patent publication US10799474B2, “Method of treating leukemia utilizing somatic cell reprogramming” (priority 2016, dated 2020)
